Assay results published in PMC4192545, “Suramin Inhibits Hsp104 ATPase and Disaggregase Activity” (PLoS ONE, 2014).
“And” between values parts separate entries of the source, which are not always exact repeats. Equal values may be shown once.

Experiments:
[1] = molecular target: T1, Hsp104 (Saccharomyces cerevisiae, UniProt P31539); assay: Luciferase disaggregation/reactivation assay, Hsp104 with ATP:ATPγS; format: biochemical, yeast
T1 construct: made in house; host or cells: E. coli BL21-DE3 RIL
Procedure: (§1) Luciferase reactivation was performed as described, [37]. To assemble aggregates, firefly luciferase (50 µM) in luciferase refolding buffer (LRB, 25 mM HEPES-KOH, 7.4, 150 mM KAOc, 10 mM MgAOc, 10 mM DTT) with 6 M urea was incubated at 30°C for 20 min. Luciferase was then rapidly diluted 100-fold into LRB, divided into 100 µL aliquots, snap frozen in liquid N2, and stored at −80°C. For reactivation assays, aggregated luciferase (50 nM) was incubated with Hsp104 (1 µM hexamer), plus 2.6 mM ATPγS, 2.6 mM ATP and an ATP regeneration system (1 mM creatine phosphate, 0.25 µM creatine kinase (Roche Applied Science)) for 90 minutes at 25°C. Luciferase assay system was purchased from Promega. Luciferase activity was assessed by luminescence measured on a Safire^2 microplate reader (Tecan, Männedorf, Switzerland). The half maximal inhibitory concentration (IC50) was calculating by fitting luciferase-refolding data at different Suramin concentrations with Prism (GraphPad Software, Inc., La Jolla, CA).

[2] = molecular target: T2, Hsp104 with Hsp70 and Hsp40 (Saccharomyces cerevisiae, UniProt P31539); assay: Luciferase reactivation with Hsp70, Hsp40 and Hsp104 plus ATP; format: biochemical; conditions: for Normalized Luciferase Refolding Activity: Figure 3D, 70/40/104 (Hsp70 1 µM, Hsp40 1 µM, ATP)
T2 construct: host or cells: E. coli BL21-DE3 RIL (Hsp104)
Procedure: as §1
(A) Urea-denatured firefly luciferase aggregates were incubated for 90 min at 25°C with Hsp104 (1 µM hexamer) plus 1∶1 mixtures of ATP and ATPγS and varying concentrations of GdmCl. Luciferase reactivation was then determined and converted to % WT disaggregase activity in the presence of ATPγS: ATP. Values represent mean ±S.D. (n = 3–6). (B) Reactions were performed as in (A) except varying concentrations of Suramin were used. Values represent mean ±S.D. (n = 6–10). (C) Half maximal inhibitory concentration (IC50) for Suramin-mediated inhibition of Hsp104. IC50 was calculating by fitting luciferase-refolding data at different Suramin concentrations. (D) Reactions were performed as in (A) except that 1∶1 mixtures of ATP and ATPγS were replaced with Hsp70 (1 µM) and Hsp40 (1 µM) plus ATP. The Hsp104 alone condition (yellow bars) was carried out with 1∶1 mixtures of ATP and ATPγS as in (A). Each condition is normalized to the refolding activity in each corresponding condition in the absence of inhibitor.

[3] = molecular target: T3, ClpB (Escherichia coli, UniProt P63284); assay: ClpB ATPase assay; format: biochemical, E. coli; conditions: for Normalized ATPase Activity: 10 min, ATP 1 mM, Figure 5A
T3 construct: made in house
Procedure: Wild-type or mutant Hsp104 (0.25 µM monomer) in ATPase buffer (20 mM HEPES-KOH pH 7.4, 20 mM NaCl and 10 mM MgCl2) was incubated for 60 or 10 min at 25°C in the presence of ATP (1 mM) as noted. ATPase activity was assessed by the release of inorganic phosphate determined by using a malachite green phosphate detection kit (Innova).
(A) ClpB (0.25 µM monomer) was incubated for 10 min with ATP (1 mM) and varying concentrations of Suramin. The amount of Pi produced was measured by absorbance at 635 nm. Absorbance values were normalized to the absorbance produced by ClpB in the absence of inhibitor. Values represent mean ±S.D. (n = 6). (B) Urea-denatured firefly luciferase aggregates were incubated for 90 min at 25°C with ClpB (1 µM hexamer) in the presence of 1∶1 mixtures of ATP and ATPγS and varying concentrations of Suramin. Reactivation of luciferase was then determined by luminescence and converted to % WT ClpB activity (activity of 1 µM WT ClpB in the presence of ATP and ATPγS). Values represent mean ±S.D. (n = 6–12). TEXT PRINTED IN THE PICTURE: (A) Suramin: Normalized ATPase Activity: 1.03 ([Suramin] μM: 0); Normalized ATPase Activity: 0.76 ([Suramin] μM: 100); Normalized ATPase Activity: 0.78 ([Suramin] μM: 50); Normalized ATPase Activity: 0.60 ([Suramin] μM: 25); Normalized ATPase Activity: 0.59 ([Suramin] μM: 10); Normalized ATPase Activity: 0.65 ([Suramin] μM: 5); Normalized ATPase Activity: 1.01 ([Suramin] μM: 1) | (B) Suramin: Normalized Luciferase Refolding Activity: 1.00 ([Suramin] μM: 0); Normalized Luciferase Refolding Activity: 0.16 ([Suramin] μM: 100); Normalized Luciferase Refolding Activity: 1.03 ([Suramin] μM: 50); Normalized Luciferase Refolding Activity: 1.39 ([Suramin] μM: 25); Normalized Luciferase Refolding Activity: 2.23 ([Suramin] μM: 10); Normalized Luciferase Refolding Activity: 1.82 ([Suramin] μM: 5); Normalized Luciferase Refolding Activity: 1.02 ([Suramin] μM: 1)

[4] = tested on: Δpdr5 yeast; assay: [PSI+] propagation in Δpdr5 yeast; format: cell-based; conditions: Suramin 100 µM, data not shown

T3 sequence (P63284 whole entry): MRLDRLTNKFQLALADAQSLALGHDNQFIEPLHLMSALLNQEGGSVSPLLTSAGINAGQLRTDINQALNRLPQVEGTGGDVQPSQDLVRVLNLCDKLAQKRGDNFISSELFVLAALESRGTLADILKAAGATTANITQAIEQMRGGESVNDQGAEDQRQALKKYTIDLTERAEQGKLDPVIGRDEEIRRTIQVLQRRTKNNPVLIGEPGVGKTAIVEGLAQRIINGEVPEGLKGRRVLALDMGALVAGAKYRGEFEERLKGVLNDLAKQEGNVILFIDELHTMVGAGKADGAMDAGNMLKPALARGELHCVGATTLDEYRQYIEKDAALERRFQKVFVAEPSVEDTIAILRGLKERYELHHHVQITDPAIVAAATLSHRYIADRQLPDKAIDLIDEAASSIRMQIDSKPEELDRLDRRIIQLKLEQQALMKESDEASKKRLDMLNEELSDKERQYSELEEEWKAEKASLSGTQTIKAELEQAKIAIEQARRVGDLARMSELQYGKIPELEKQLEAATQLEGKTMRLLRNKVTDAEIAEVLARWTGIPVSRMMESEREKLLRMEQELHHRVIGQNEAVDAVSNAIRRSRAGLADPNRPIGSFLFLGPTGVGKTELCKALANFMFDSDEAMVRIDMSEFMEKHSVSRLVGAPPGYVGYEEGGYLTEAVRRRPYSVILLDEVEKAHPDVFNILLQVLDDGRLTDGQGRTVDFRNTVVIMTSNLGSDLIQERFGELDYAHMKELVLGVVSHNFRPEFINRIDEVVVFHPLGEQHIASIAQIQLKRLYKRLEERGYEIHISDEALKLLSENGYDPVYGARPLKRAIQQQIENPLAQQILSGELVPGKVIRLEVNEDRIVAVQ
T2 sequence (P31539 whole entry): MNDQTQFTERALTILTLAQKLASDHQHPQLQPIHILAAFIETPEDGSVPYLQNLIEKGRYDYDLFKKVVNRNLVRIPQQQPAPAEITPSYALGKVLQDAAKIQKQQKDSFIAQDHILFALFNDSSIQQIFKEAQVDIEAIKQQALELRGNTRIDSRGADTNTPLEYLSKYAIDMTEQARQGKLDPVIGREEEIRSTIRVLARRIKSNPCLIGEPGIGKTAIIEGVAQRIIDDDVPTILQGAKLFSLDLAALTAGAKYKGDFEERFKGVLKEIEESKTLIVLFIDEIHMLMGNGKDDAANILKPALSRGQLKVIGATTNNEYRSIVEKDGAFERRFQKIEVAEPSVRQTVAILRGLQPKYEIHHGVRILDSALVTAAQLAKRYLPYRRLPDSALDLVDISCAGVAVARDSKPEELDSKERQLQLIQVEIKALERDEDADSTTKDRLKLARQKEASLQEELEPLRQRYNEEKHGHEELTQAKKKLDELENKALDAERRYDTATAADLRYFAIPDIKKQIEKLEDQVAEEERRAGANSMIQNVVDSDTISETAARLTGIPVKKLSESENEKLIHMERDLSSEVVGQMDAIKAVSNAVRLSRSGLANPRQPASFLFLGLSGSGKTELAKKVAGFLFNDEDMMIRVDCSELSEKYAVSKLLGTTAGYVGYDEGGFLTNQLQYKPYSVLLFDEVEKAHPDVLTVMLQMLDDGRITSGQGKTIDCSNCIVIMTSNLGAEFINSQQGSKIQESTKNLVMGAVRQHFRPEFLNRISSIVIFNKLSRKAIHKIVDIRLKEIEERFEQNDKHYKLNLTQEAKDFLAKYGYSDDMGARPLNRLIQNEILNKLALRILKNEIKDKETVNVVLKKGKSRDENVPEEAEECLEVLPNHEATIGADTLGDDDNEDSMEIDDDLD
T1 sequence (P31539 whole entry): as above

Cc1ccc(C(=O)Nc2ccc(S(=O)(=O)O)c3cc(S(=O)(=O)O)cc(S(=O)(=O)O)c23)cc1NC(=O)c1cccc(NC(=O)Nc2cccc(C(=O)Nc3cc(C(=O)Nc4ccc(S(=O)(=O)O)c5cc(S(=O)(=O)O)cc(S(=O)(=O)O)c45)ccc3C)c2)c1 [Suramin]
Normalized Luciferase Refolding Activity ([1]; Figure 3D, Hsp104 alone (104), ATP:ATPγS 1:1, Suramin 25 µM): 0.14
Normalized Luciferase Refolding Activity ([1]; Figure 3D, Hsp104 alone (104), ATP:ATPγS 1:1, Suramin 100 µM): 0.00
Hsp104^WT refolding activity ([1]; Suramin 1 µM): 100%
Normalized Luciferase Refolding Activity ([1]; Suramin 1 µM, 90 min 25°C, ATP:ATPγS 1:1, Figure 3B): 0.99
Normalized Luciferase Refolding Activity ([1]; Suramin 5 µM, 90 min 25°C, ATP:ATPγS 1:1, Figure 3B): 0.63
Normalized Luciferase Refolding Activity ([1]; Suramin 10 µM, 90 min 25°C, ATP:ATPγS 1:1, Figure 3B): 0.50
Normalized Luciferase Refolding Activity ([1]; Suramin 25 µM, 90 min 25°C, ATP:ATPγS 1:1, Figure 3B): 0.14
Hsp104 refolding activity ([1]; Suramin 50 µM): practically inactive
Normalized Luciferase Refolding Activity ([1]; Suramin 50 µM, 90 min 25°C, ATP:ATPγS 1:1, Figure 3B): 0.03
Effect on Hsp104 refolding of denatured luciferase ([1]; Suramin 100 µM): completely ablated the ability of Hsp104 to refold denatured luciferase
Normalized Luciferase Refolding Activity ([1]; Suramin 100 µM, 90 min 25°C, ATP:ATPγS 1:1, Figure 3B): 0.00
IC50 ([1]; fit of luciferase-refolding data, ATP:ATPγS 1:1, read-out: IC50, Hsp104^WT luciferase refolding): ~10.1 µM and 10.1 µM
Normalized Luciferase Refolding Activity ([2]; Suramin 25 µM): 0.12
Normalized Luciferase Refolding Activity ([2]; Suramin 100 µM): 0.03
Rescue of inhibition by Hsp70 and Hsp40 ([2]; disaggregation reaction with Hsp70 and Hsp40): not rescued by inclusion of Hsp70 and Hsp40
Normalized ATPase Activity ([3]; ClpB 0.25 µM monomer, Suramin 100 µM): 0.76
Normalized ATPase Activity ([3]; ClpB, Suramin 1 µM): 1.01
Normalized ATPase Activity ([3]; ClpB, Suramin 5 µM): 0.65
Normalized ATPase Activity ([3]; ClpB, Suramin 10 µM): 0.59
Normalized ATPase Activity ([3]; ClpB, Suramin 25 µM): 0.60
Normalized ATPase Activity ([3]; ClpB, Suramin 50 µM): 0.78
inhibition at 100 µM ([3]; Suramin 100 µM): 24%
Effect on [PSI+] propagation [4]: impaired neither
